From patent US20110152166A1, “METHOD OF MODULATION OF PROTEIN PHOSPHORYLATION-DEPENDENT CONFORMATIONAL TRANSITIONS WITH LOW MOLECULAR WEIGHT COMPOUNDS” (priority 2006, published 2011)
Ends that are not written are not given here.

Legend:
[1] = biological target: T1, GST-PDK1 1-556 (Homo sapiens, UniProt O15530); assay: Surface plasmon resonance, GST-PDK1 binding to biotin-PIFtide and displacement by compounds; details: competition, pre-incubation with PDK1
T1 construct: made in house; host or cells: HEK293
T1 sequence (O15530 1-556): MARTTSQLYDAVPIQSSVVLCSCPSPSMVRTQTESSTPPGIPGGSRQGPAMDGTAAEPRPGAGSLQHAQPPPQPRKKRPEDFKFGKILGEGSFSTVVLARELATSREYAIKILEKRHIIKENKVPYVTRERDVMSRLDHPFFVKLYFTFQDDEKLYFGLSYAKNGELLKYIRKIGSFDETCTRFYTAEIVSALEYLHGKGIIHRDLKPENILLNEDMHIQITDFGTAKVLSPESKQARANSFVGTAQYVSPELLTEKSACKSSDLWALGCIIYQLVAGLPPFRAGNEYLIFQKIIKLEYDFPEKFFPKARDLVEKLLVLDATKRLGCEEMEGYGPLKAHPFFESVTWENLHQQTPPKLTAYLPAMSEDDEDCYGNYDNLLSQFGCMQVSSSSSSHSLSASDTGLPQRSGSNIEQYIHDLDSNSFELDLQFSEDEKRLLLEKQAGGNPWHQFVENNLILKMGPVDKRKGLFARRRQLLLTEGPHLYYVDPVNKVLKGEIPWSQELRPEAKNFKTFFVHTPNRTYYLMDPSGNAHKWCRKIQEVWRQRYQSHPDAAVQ
Protocol: FIG. 3—Small compounds displace the binding of PDK1 1-556 to the HM peptide derived from its substrate PRK2, PIFtide. Surface plasmon resonance measurements were carried out on a BiaCore system to measure the interaction between GST-PDK1 and biotin-PIFtide coupled to a streptavidin-coated chip. (A) Direct measurement of PDK1 interaction with biotin-PIFtide. PDK1 was injected at the indicated concentrations (nM). For the following competition experiments, PDK1 45 nM was used. (B) PDK1 interaction with biotin-PIFtide was abolished by pre-incubation with PIFtide. […] The data points represent the maximal response units obtained after 30 s injection in the presence of the indicated concentration of compound. In (A) and (B) the spikes at the start and end of injection have been eliminated for clarity.
Binding of PDK1 to PIFtide was analysed by surface plasmon resonance on a BiaCore 3000 system using a streptavidin-coated Sensor chip (SA) and biotin-PIFtide, as previously described (Biondi et al., 2001). Biotin-PIFtide was bound to the chip to a level of 15 to 25 response units in different experiments. GST-PDK1 bound to biotin-PIFtide with an affinity of 90 nM, in good agreement with previous data obtained using the BiaCore system. For interaction-displacement assays, GST-PDK1 (60 nM) was injected (30 μl/min) in a buffer containing 10 mM HEPES pH 7.5, 150 mM NaCl, 0.005% Tween20, 1 mM DTT and 1% DMSO, in the presence or absence of compounds. GST-PDK1 was pre-incubated with compounds for 1 to 10 minutes before injection into the system, with similar results. Experiments were performed at least twice using different biotin-PIFtide coated chips, with similar results obtained on each occasion.

[2] = biological target: T2, PKA (Homo sapiens, UniProt P17612); assay: AGC kinase panel activity assay (Kemptide); format: biochemical; details: for PKA (%) activity: 1% DMSO = 100%
T2 construct: purchased Sigma
Protocol: Protein kinase activity tests were performed essentially as previously described (Balendran et al., 2000; Biondi et al., 2000; Biondi et al., 2001). Substrates used were either MBP (for PKCζ or polypeptides (Crosstide for PKB, S6K, SGK and PRK2; T308tide for PDK1, and Kemptide for PKA). PKA (Sigma) was measured in the presence of 100 μM cAMP. Alternatively, assays were performed in a 96 well format, aliquots spotted on p81 phosphocellulose papers (Whatmann), washed in 0.01% phosphoric acid, dried, and then exposed and analysed using Phospholmager technology (Storm, Molecular Dynamics). Activity measurements were performed in duplicates with less than 10% difference between duplicate pairs. Experiments were repeated at least twice, although most of the experiments were repeated multiple times, with similar results.
Activity assays for each kinase were performed as described in Materials and Methods in the presence of 1% DMSO (100%). Except PKA, all protein kinases were produced as a GST-fusion. S6K1, PKBα, SGK mutants used were S6K1-T2-[Thr412Glu], PKBa[Ser473Asp] and ΔN-SGK[Ser422Asp].

displacement of PDK1 binding to biotin-PIFtide (in words) [1]	PKA (%) activity ([2]; 20 μM compound)	PKA (%) activity ([2]; 200 μM compound)	effect on PKA activity (in words) ([2]; 20 μM)	Compound
abolished this interaction	–	–	–	REPRILSEEEQEMFRDFDYIADWC [PIFtide, reference compound]
able to disrupt the binding	100%	94%	no significant effect	O=C(O)CSC(CC(=O)c1ccc(Cl)cc1)c1ccccc1 (centres unmarked) [Compound 1]

Compound	displacement of PDK1 binding to biotin-PIFtide (in words) [1]	PKA (%) activity ([2]; 20 μM compound)	PKA (%) activity ([2]; 200 μM compound)	effect on PKA activity (in words) ([2]; 20 μM)
COC(=O)CSC(CC(=O)c1ccc(Cl)cc1)c1ccccc1 (centres unmarked) [Compound 2]	did not displace the binding significantly	109%	103%	–
